Experimental data: PubChem BioAssay (NCI)
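Interpolation was linear, between the two tested concentrations surrounding the appropriate level; five concentrations were tested over 48 hours in 96-well plates. TGI marks complete inhibition of growth.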

Experiments:
Assay in all cases: DTP human tumour cell line panel, 48 h
CAKI-1 renal = system: CAKI-1 renal
SN12C renal = system: SN12C renal
IGROV1 ovarian = system: IGROV1 ovarian
MDA-MB-435 = system: MDA-MB-435
HCT-116 colon = system: HCT-116 colon
OVCAR-4 ovarian = system: OVCAR-4 ovarian
ACHN renal = system: ACHN renal
HCT-15 colon = system: HCT-15 colon
NCI/ADR-RES ovarian = system: NCI/ADR-RES ovarian
786-0 renal = system: 786-0 renal
SF-539 CNS = system: SF-539 CNS
RPMI-8226 leukemia = system: RPMI-8226 leukemia
SF-268 CNS = system: SF-268 CNS
HT29 colon = system: HT29 colon
OVCAR-3 ovarian = system: OVCAR-3 ovarian
HOP-92 NSCLC = system: HOP-92 NSCLC
HOP-62 NSCLC = system: HOP-62 NSCLC
TK-10 renal = system: TK-10 renal
MDA-MB-231 breast = system: MDA-MB-231 breast
SNB-75 CNS = system: SNB-75 CNS
SNB-19 CNS = system: SNB-19 CNS
SK-OV-3 ovarian = system: SK-OV-3 ovarian
MCF7 breast = system: MCF7 breast
EKVX NSCLC = system: EKVX NSCLC
PC-3 prostate = system: PC-3 prostate
NCI-H522 lung = system: NCI-H522 lung
SK-MEL-5 melanoma = system: SK-MEL-5 melanoma
SF-295 CNS = system: SF-295 CNS
T-47D breast = system: T-47D breast
LOX IMVI melanoma = system: LOX IMVI melanoma
DU-145 prostate = system: DU-145 prostate
BT-549 breast = system: BT-549 breast
SR leukemia = system: SR leukemia
HS 578T breast = system: HS 578T breast
A549 NSCLC = system: A549 NSCLC
NCI-H23 lung = system: NCI-H23 lung
UACC-257 melanoma = system: UACC-257 melanoma
SW-620 colon = system: SW-620 colon
U251 CNS = system: U251 CNS
NCI-H460 lung = system: NCI-H460 lung
MDA-N = system: MDA-N
MOLT-4 leukemia = system: MOLT-4 leukemia
UO-31 renal = system: UO-31 renal
MALME-3M melanoma = system: MALME-3M melanoma
HCC-2998 colon = system: HCC-2998 colon
UACC-62 melanoma = system: UACC-62 melanoma
RXF 393 renal = system: RXF 393 renal
KM12 colon = system: KM12 colon
OVCAR-8 ovarian = system: OVCAR-8 ovarian
SK-MEL-2 melanoma = system: SK-MEL-2 melanoma
SK-MEL-28 melanoma = system: SK-MEL-28 melanoma
OVCAR-5 ovarian = system: OVCAR-5 ovarian
CCRF-CEM leukemia = system: CCRF-CEM leukemia
NCI-H226 lung = system: NCI-H226 lung
COLO 205 colon = system: COLO 205 colon
A498 renal = system: A498 renal
M14 melanoma = system: M14 melanoma
K-562 leukemia = system: K-562 leukemia

COCOc1c(C(O[Si](C)(C)C(C)(C)C)c2cnc(Sc3ccccc3)n2C)ccc(OC)c1OC (centres undefined)
TGI (CAKI-1 renal): 10.1 µM | TGI (SN12C renal): 3.31 µM | TGI (IGROV1 ovarian): 5.01 µM | TGI (MDA-MB-435): 3.26 µM | TGI (HCT-116 colon): 2.95 µM | TGI (OVCAR-4 ovarian): 16.2 µM | TGI (ACHN renal): 6.98 µM | TGI (HCT-15 colon): 4.32 µM | TGI (NCI/ADR-RES ovarian): 2.75 µM | TGI (786-0 renal): 4.41 µM | TGI (SF-539 CNS): 3.71 µM | TGI (RPMI-8226 leukemia): 4.77 µM | TGI (SF-268 CNS): 3.34 µM | TGI (HT29 colon): 4.15 µM | TGI (OVCAR-3 ovarian): 3.22 µM | TGI (HOP-92 NSCLC): 6.36 µM | TGI (HOP-62 NSCLC): 3.61 µM | TGI (TK-10 renal): 16.3 µM | TGI (MDA-MB-231 breast): 3.19 µM | TGI (SNB-75 CNS): 5.77 µM | TGI (SNB-19 CNS): 6.27 µM | TGI (SK-OV-3 ovarian): 7.74 µM | TGI (MCF7 breast): 3.8 µM | TGI (EKVX NSCLC): 7.65 µM | TGI (PC-3 prostate): 3.04 µM | TGI (NCI-H522 lung): 3.58 µM | TGI (SK-MEL-5 melanoma): 3.21 µM | TGI (SF-295 CNS): 6.18 µM | TGI (T-47D breast): > 100 µM | TGI (LOX IMVI melanoma): 3.23 µM | TGI (DU-145 prostate): > 100 µM | TGI (BT-549 breast): 4.02 µM | TGI (SR leukemia): 7.74 µM | TGI (HS 578T breast): 6.17 µM | TGI (A549 NSCLC): 4.33 µM | TGI (NCI-H23 lung): > 100 µM | TGI (UACC-257 melanoma): 4.6 µM | TGI (SW-620 colon): 3.8 µM | TGI (U251 CNS): 3.1 µM | TGI (NCI-H460 lung): 3.02 µM | TGI (MDA-N): 3.34 µM | TGI (MOLT-4 leukemia): 8.95 µM | TGI (UO-31 renal): 3.32 µM | TGI (MALME-3M melanoma): 8.93 µM | TGI (HCC-2998 colon): 3.7 µM | TGI (UACC-62 melanoma): 3.91 µM | TGI (RXF 393 renal): 2.71 µM | TGI (KM12 colon): 3.93 µM | TGI (OVCAR-8 ovarian): 2.74 µM | TGI (SK-MEL-2 melanoma): 3.05 µM | TGI (SK-MEL-28 melanoma): 4.18 µM | TGI (OVCAR-5 ovarian): > 100 µM | TGI (CCRF-CEM leukemia): 9 µM | TGI (NCI-H226 lung): 4.14 µM

c1csc(-c2cc(-c3cccs3)c(-c3cccs3)s2)c1
TGI (CAKI-1 renal): > 100 µM | TGI (SN12C renal): > 100 µM | TGI (IGROV1 ovarian): > 100 µM | TGI (MDA-MB-435): > 100 µM | TGI (HCT-116 colon): > 100 µM | TGI (OVCAR-4 ovarian): > 100 µM | TGI (ACHN renal): > 100 µM | TGI (HCT-15 colon): > 100 µM | TGI (NCI/ADR-RES ovarian): > 100 µM | TGI (COLO 205 colon): > 100 µM | TGI (786-0 renal): > 100 µM | TGI (SF-539 CNS): > 100 µM | TGI (SF-268 CNS): > 100 µM | TGI (HT29 colon): > 100 µM | TGI (OVCAR-3 ovarian): > 100 µM | TGI (HOP-92 NSCLC): > 100 µM | TGI (HOP-62 NSCLC): > 100 µM | TGI (TK-10 renal): > 100 µM | TGI (MDA-MB-231 breast): > 100 µM | TGI (SNB-75 CNS): > 100 µM | TGI (SNB-19 CNS): > 100 µM | TGI (SK-OV-3 ovarian): > 100 µM | TGI (A498 renal): > 100 µM | TGI (MCF7 breast): 66.8 µM | TGI (M14 melanoma): > 100 µM | TGI (EKVX NSCLC): > 100 µM | TGI (PC-3 prostate): > 100 µM | TGI (NCI-H522 lung): > 100 µM | TGI (SK-MEL-5 melanoma): > 100 µM | TGI (SF-295 CNS): > 100 µM | TGI (T-47D breast): 77 µM | TGI (DU-145 prostate): > 100 µM | TGI (BT-549 breast): > 100 µM | TGI (SR leukemia): > 100 µM | TGI (HS 578T breast): > 100 µM | TGI (A549 NSCLC): > 100 µM | TGI (NCI-H23 lung): > 100 µM | TGI (UACC-257 melanoma): > 100 µM | TGI (SW-620 colon): > 100 µM | TGI (U251 CNS): > 100 µM | TGI (K-562 leukemia): > 100 µM | TGI (NCI-H460 lung): > 100 µM | TGI (MDA-N): > 100 µM | TGI (MOLT-4 leukemia): > 100 µM | TGI (UO-31 renal): > 100 µM | TGI (MALME-3M melanoma): > 100 µM | TGI (HCC-2998 colon): > 100 µM | TGI (UACC-62 melanoma): > 100 µM | TGI (RXF 393 renal): > 100 µM | TGI (KM12 colon): > 100 µM | TGI (OVCAR-8 ovarian): > 100 µM | TGI (SK-MEL-28 melanoma): > 100 µM | TGI (OVCAR-5 ovarian): > 100 µM | TGI (CCRF-CEM leukemia): > 100 µM | TGI (NCI-H226 lung): > 100 µM
